Source: patent US20080318911A1, “20-Cyclopropyl, 26,27-Alkyl/Haloalkyl Vitamin D3 Compounds and Methods of Use Thereof” (BIOXELL S.P.A., priority 2004, published 2008)
pIC50: −log10 of the molar value. In brackets after ≈: the same amount, converted by molar mass.

Legend:
[1] = Determination of Maximum Tolerated Dose (MTD) in mice; settings: mouse, in vivo, po; female C57BL/6 mice, p.o. daily for four days; highest dose without hypercalcemia (serum calcium >10.7 mg/dl)
[2] = system: IFN-γ production by allogeneic PBMC; test: IFN-γ production in the mixed leukocyte response (MLR); type: cell-based; settings: 120 h; MLR of allogeneic PBMC, 5 days, ELISA; read-out: INF-γ IC50
Method: Immature dendritic cells (DC) were prepared as described in Romani, N. et al. (Romani, N. et al. (1996) J. Immunol. Meth. 196:137). IFN-γ production by allogeneic T cell activation in the mixed leukocyte response (MLR) was determined as described in Penna, G., et al., J Immunol., 164: 2405-2411 (2000).
Briefly, peripheral blood mononuclear cells (PBMC) were separated from buffy coats by Ficoll gradient and the same number (3×10^5) of allogeneic PBMC from 2 different donors were co-cultured in 96-well flat-bottom plates. The vitamin D3 compounds were added to each of the cultures.

RT112 = test: Proliferation assay using bladder cancer cell lines: RT112; type: cell-based, human; settings: 72 h culture, CyQuant proliferation assay
Method: (§1) Bladder cancer cell lines (T24, RT112, HT1376 and RT4 are human bladder cancer cell lines; NHEK are normal human keratinocytes) were obtained from the European Collection of Cell Cultures (Salisbury, UK). Cells were plated at 3×10^3 per well, in flat bottomed 96-well plates in 100 μl of DMEM medium containing: 5% Fetal Clone 1,50 μg/l gentamicin, 1 mM sodium pyruvate and 1% non-essential amino acids. After culturing for 24 h at 37° C. in 5% CO2, to allow cells to adhere to the plates, VDR ligands (compounds (1)-(14)) were added at concentrations ranging from 100 μM to 0.3 μM in 100 μl of above-mentioned complete medium. After a further 72 h of culture, cell proliferation was measured using a fluorescence-based proliferation assay kit. (CyQuant Cell Proliferation Assay Kit, Molecular Probes, Eugene, Oreg., USA). The IC50 was calculated from the regression curve of the titration data.

RT4 = test: Proliferation assay using bladder cancer cell lines: RT4; type: cell-based, human; settings: 72 h culture, CyQuant proliferation assay
Method: as §1

NHEK = test: Proliferation assay: NHEK normal human keratinocytes; type: cell-based; settings: 72 h culture, CyQuant proliferation assay
Method: as §1

[3] = system: Renin mRNA in As4.1 cells; test: Renin mRNA inhibition in murine juxtaglomerular cell line As4.1; type: cell-based; settings: Mus musculus, 24 h, real time PCR normalized versus β-actin, read-out: Renin mRNA inh.As4.1/wt
Method: As4.1 cells (80% subconfluent) were treated in complete medium with compounds of the invention at 10^−8, 10^−9 and 10^−10 M for 24 h. Total RNA was extracted using RNeasy Mini kit (Qiagen); treated with DNase I (Qiagen) and Reverse Transcription Reagent (Applied Biosystems) with Random Examers were used for reverse transcription according to the manufacturers' instructions. Real Time PCR analysis was performed in multiplex using commercially available β-actin VIC-conjugated probe (cat. n. 4352341E, Applied Biosystems) and custom designed mRENIN FAM-conjugated probe (Assay by Design, Applied Biosystems; Forward: […]; Reverse: […]; Probe: FAM-[…]-MGB). Reactions were performed in a 25 μL volume containing 12,5 μl 2× Master Mix (Applied Biosystems), 10 ng/reaction/well cDNA, and 2,5 μM each gene-specific primer. An ABI PRISM 7700 analyzer (Applied Biosystems) was used at 50° C. for 2 minutes and 95° C. for 10 minutes, followed by 40 cycles at 95° C. for 15 seconds and 60° C. for 1 minute. Cycle threshold (Ct) values were exported onto Excel worksheets for analysis. Test cDNA results were normalized versus mouse β-actin housekeeping gene. Fold differences in gene expression between the subtracted versus the unsubtracted populations were expressed using the method of 2^−ΔΔCt. (Table 6)

[4] = Theoretical maximum absorbable dose (MAD), human intestine
Method: (§2) To evaluate the intestinal absorption potential of selected compounds, the maximum absorbable dose (MAD) in mouse, rat and human intestines was also calculated using a modification of the original equation (Johnson 1996, Hilgers 2003): MAD (mg)=S·Pe·(A/ILV)·SIV·SITT (Eq. 1), where S is the solubility measured at pH 7.4 (mg/ml), Pe is the permeability measured in artificial membranes (PAMPA) or in the apical to basolateral direction of Caco-2 cells (cm/sec), A is the intestinal surface area (cm^2), ILV is the intestinal lumen volume (cm^3), SIV is the small intestinal volume (ml) and SITT is the small intestinal transit time (sec).

[5] = Theoretical maximum absorbable dose (MAD), mouse intestine
Method: as §2

[6] = Theoretical maximum absorbable dose (MAD), rat intestine
Method: as §2

[7] = Apparent permeability on Caco-2 cells; type: in vitro ADME, Human; settings: human, Caco-2, Table 8
Method: (§3) Apparent Permeability on Caco-2 cells. Human colon adenocarcinoma (Caco-2) cells were obtained from the American Type Culture Collection (Rockville, Md.). Permeability studies were performed using a 24-well format in both transport directions, apical to basolateral (A→B) and basolateral to apical (B→A), on Caco-2 monolayers. Fresh donor solution containing 10 μM test compound was added to either the apical or the basolateral side, while drug-free medium was placed on the opposite side. The 24-transwell plates were placed on a plate shaker at 37° C. After 2 h, the buffer from the receiving and donor chambers were collected and aliquots were analysed via LC-MS/MS. The data reported were the permeability cm·10^−6/sec and the efflux ratio.

Caco-2 cells = test: Apparent permeability on Caco-2 cells; type: in vitro ADME, Human
Method: as §3

[8] = Solubility in aqueous buffer; type: physicochemical; settings: kinetic from dmso stock; for solubility at 2 h: pH 7, 2 h; for solubility at 24 h: pH 7, 24 h; for solubility: pH 7.4, aqueous buffer
Method: […] A 96-well plate format assay was used. […] Solutions were filtered through a 0.22 μm and concentrations of the concentration of the compound in the filtrate was determined using LC-MS/MS in comparison with 1 and 10 μM standards. The measurements were expressed as mM.

[9] = target: T1, human cDNA expressed CYP3A4 (Homo sapiens, UniProt P08684); test: Metabolic stability (hCYP3A4); type: in vitro ADME; settings: 2 μM, 60 min at 37° C.
T1 construct: purchased Gentest
Method: Metabolic Stability (hCYP34A4). The relative stability of the substrate was determined by measuring the amount of substrate remaining following incubation with human cDNA expressed CYP3A4 microsomal preparations (Gentest, 6 pmol) against a control microsomal incubation containing no active cytochrome P450. The assay was performed in a 96-well plate format. Each compound was incubated at a concentration of 2 μM for 60 min at 37° C. LC-MS/MS was used for determining the compound remaining after incubation. The results were expressed as % remaining.

[10] = system: human stromal bladder cells; test: Basal growth of human stromal bladder cells; type: cell-based; settings: FIG. 2
From the text: The Inventors confirmed the presence of vitamin D receptors (VDRs), as previously reported in the literature, on these cells (see below in FIG. 1).
The maximum tolerated dose (MTD) in rats is also listed for each compound (Table 5).

[11] = Permeability by passive diffusion (PAMPA); type: in vitro ADME
Method: Permeability by Passive Diffusion (PAMPA). Experiments were performed in 96-well acceptor and donor plates using 15% soy lecithin in n-dodecane artificial membranes. The acceptor plate (96 well hydrophobic filter plate (MAIP N45, Millipore)) was prepared by adding 4 μL of artificial membrane material on the top of the filter and the plate was filled with 200 μL of HEPES buffered HBSS (pH 7.4). The donor plate (an indented 96-well plate from p-ION, MA) was filled with 200 μL of HEPES buffered HBSS (pH 7.4) containing 10 μM of the test compounds. The acceptor plate was placed onto the donor plate to form a “sandwich” and was incubated at 37° C. for 4 hours. After the incubation period, acceptor, donor and initial donor solution (reference) were analysed via LC-MS/MS. Data were reported as bilateral Peff in cm×10^−6/sec and % retention in the membrane.

HT1376 = test: Proliferation assay using bladder cancer cell lines: HT1376; type: cell-based; settings: Homo sapiens, HT-1376; 72 h culture, CyQuant proliferation assay
Method: as §1

[12] = calculated using Caco2-AB permeability
[13] = calculated using PAMPA permeability

T1 sequence (P08684 whole entry): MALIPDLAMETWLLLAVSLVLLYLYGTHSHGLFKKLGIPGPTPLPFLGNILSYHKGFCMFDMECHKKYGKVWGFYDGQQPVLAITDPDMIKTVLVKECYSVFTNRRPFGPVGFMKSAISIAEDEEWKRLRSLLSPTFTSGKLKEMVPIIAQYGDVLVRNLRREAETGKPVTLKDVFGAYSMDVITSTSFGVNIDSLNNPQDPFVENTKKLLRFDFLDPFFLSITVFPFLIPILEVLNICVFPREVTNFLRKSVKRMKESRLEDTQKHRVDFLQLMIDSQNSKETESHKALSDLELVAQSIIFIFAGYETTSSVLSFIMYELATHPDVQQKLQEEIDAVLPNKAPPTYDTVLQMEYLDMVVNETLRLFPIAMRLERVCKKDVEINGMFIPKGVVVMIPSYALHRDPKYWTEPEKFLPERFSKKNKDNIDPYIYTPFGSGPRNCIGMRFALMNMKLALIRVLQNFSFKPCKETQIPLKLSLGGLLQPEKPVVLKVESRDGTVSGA

Structure (SMILES) | MTD at 4 days [1] [µg/kg] | pIC50 [2] | pIC50 (RT112; Homo sapiens, RT-112) | pIC50 (RT4; Homo sapiens, RT-4) | pIC50 (NHEK) | pIC50 [3] | solubility at 2 h [8] [µM] | solubility at 24 h [8] [µM] | solubility [8] [µg/mL] | CYP3A4 stability [9] [% remaining] | inhibiting the basal growth of bladder cells [10] | further results
C[C@]12CCC/C(=C\C=C3\CC(O)C[C@H](O)C3)C1CC=C2C1(CC#CC(O)(C(F)(F)F)C(F)(F)F)CC1 (stereo partly drawn) [Compound 3, 1α,25-Dihydroxy-16-ene-20-cyclopropyl-23,24-yne-26,27-hexafluoro-19-nor-cholecalciferol] | 0.3 | 10.85 | 4.64 | 5.28 | 6.00 | 9.14 | 1.3 (≈ 0.674 µg/mL) | 7.1 (≈ 3.68 µg/mL) | 0.674 (≈ 1.3 µM) | 45.5 |  | MAD (ug) human (Caco2-AB) [4, 12]: 54.43 (Caco2-AB) ug; MAD (ug) mouse (Caco2-AB) [5, 12]: 0.16 (Caco2-AB) ug; MAD (ug) rat (Caco2-AB) [6, 12]: 0.78 (Caco2-AB) ug; Papp A→B at 2 h, 10 μM ([7]; apical to basolateral, read-out: Caco2 Papp_AB): 3 ×10⁻⁶ cm/s; Papp B→A at 2 h, 10 μM ([7]; basolateral to apical, read-out: Caco2 Papp_BA): 6 ×10⁻⁶ cm/s; Papp_A > B (Caco-2 cells; apical to basolateral, 10 μM, 2 h): 3.0 cm·10^−6/sec; Mass Bal A > B (Caco-2 cells; apical to basolateral, unit assumed): 8.8%; Mass Bal B > A (Caco-2 cells; basolateral to apical): 50.5%; Papp_B > (Caco-2 cells; basolateral to apical, 10 μM, 2 h): 6.0 cm·10^−6/sec
C=C1/C(=C\C=C2/CCC[C@]3(C)C(C4(C/C=C\C(O)(C(F)(F)F)C(F)(F)F)CC4)=CCC23)CC(O)C[C@@H]1O (stereo partly drawn) [Compound 8, 1α,25-Dihydroxy-16-ene-20-cyclopropyl-23,24-Z-ene-26,27-hexafluoro-cholecalciferol] | 1 | 10.48 | 4.81 | 5.48 | 5.44 | 8.79 | < 1 | 1.6 (≈ 0.852 µg/mL) | 0.533 (≈ 1 µM) | 52.7 | effective | MAD (ug) human (PAMPA) [4, 13]: 716.81 µg; MAD (ug) mouse (PAMPA) [5, 13]: 2.11 µg; MAD (ug) rat (PAMPA) [6, 13]: 10.28 µg; PAMPA % Memb ([11]; % retention in the membrane): 57.6%; Papp at 4 h, 10 μM ([11]; PAMPA, pH 7.4, Table 8): 50 ×10⁻⁶ cm/s
C=C1/C(=C\C=C2/CCC[C@]3(C)C([C@H](C)CCCC(C)(C)O)CC[C@@H]23)C[C@@H](O)C[C@@H]1O (some centres unmarked) [1,25(OH)2D3, 1,25-dihydroxycholecalciferol, reference compound] | 0.3 | 10.30 |  |  | 5.35 |  |  |  |  |  | effective | pIC50 (RT112): 4.54; pIC50 (RT112; Homo sapiens, RT-112, 72 h): 4.72; pIC50 (HT1376): 4.30; pIC50 (RT4): 4.59; pIC50 (RT4; Homo sapiens, RT-4, 72 h): 4.35
